Data published in patent US20240254129A1, “HETEROCYCLIC COMPOUNDS AND USES THEREOF” (Kumquat Biosciences Inc., priority 2021, published 2024).

Legend:
[1] = target: T1, wildtype Kras / hSOS1 (Homo sapiens, UniProt P01116); assay: HTRF assay, wildtype Kras / SOS1 interaction; format: binding; conditions: compound nos. 401-703; read-out: IC50 against wildtype Kras
T1 construct: made in house; host or cells: E. coli BL21 (DE3)
In short: (§1)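 HTRF read-out (ex 337, em 620 and 665 nm) of Ras–SOS1 equilibrium binding: Eu-anti-GST on GST-K-Ras, XL665-anti-6His on His-hSOS1. Incubation about 10 min or longer; IC50 fitted from emission ratio, compounds in duplicate at 10 μM down to 0.01 μM.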

[2] = target: GST-tagged K-Ras mutant / His-tagged hSOS1 (Homo sapiens, UniProt P01116); assay: HTRF assay, K-Ras mutant / SOS1 interaction; format: binding; conditions: compound nos. 401-703; read-out: IC50 against mutant Kras
Chain of GST-tagged K-Ras mutant / His-tagged hSOS1 (P01116 whole entry G12D, form open): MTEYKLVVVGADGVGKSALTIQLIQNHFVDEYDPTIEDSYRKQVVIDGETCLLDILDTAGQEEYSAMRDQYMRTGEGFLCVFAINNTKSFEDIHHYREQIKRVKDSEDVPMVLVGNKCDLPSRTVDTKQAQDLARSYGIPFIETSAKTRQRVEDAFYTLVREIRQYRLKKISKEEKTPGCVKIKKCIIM
In short: as §1

T1 sequence (P01116 1-188 isoform P01116-2): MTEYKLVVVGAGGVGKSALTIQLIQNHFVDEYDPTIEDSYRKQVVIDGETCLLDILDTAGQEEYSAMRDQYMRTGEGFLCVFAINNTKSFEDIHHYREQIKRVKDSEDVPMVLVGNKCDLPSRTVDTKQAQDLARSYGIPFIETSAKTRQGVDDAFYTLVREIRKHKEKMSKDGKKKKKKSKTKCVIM

Compound | IC50 [1] [nM] | IC50 [2] [nM]
N#Cc1c(N)sc2cccc(-c3c(Cl)cc4c(N5CC6CCC(C5)N6)nc(OC[C@@]56CCCN5C[C@H](F)C6)nc4c3F)c12 [Compound 552, 4-(4-(3,8-diazabicyclo-[3.2.1]octan-3-yl)-6-chloro-8-fluoro-2-(((2R,7aS)-2-fluorotetrahydro-1H-pyrrol-izin-7a(5H)-yl)methoxy)-quinazolin-7-yl)-2-amino-benzo[b]thiophene-3-carbonitrile] | > 500 | < 500
Nc1nc2c(-c3c(Cl)cc4c(N5CC6CCC(C5)N6)nc(OCC5(CN6CCCC6)CC5)nc4c3F)ccc(F)c2s1 [Compound 553, 4-(4-(3,8-diazabicyclo-[3.2.1]-octan-3-yl)-6-chloro-8-fluoro-2-((1-(pyrrolidin-1-ylmethyl)cyclopropyl)meth-oxy)quinazolin-7-yl)-7-fluorobenzo[d]thiazol-2-amine] | > 500 | < 500
CN1CCC[C@H]1COc1nc(N2CCCC(NC3CNC3)CC2)c2cc(Cl)c(-c3cccc4sc(N)nc34)c(F)c2n1 (stereo partly drawn) [Compound 554, 4-(4-(4-(azetidin-3-yl-amino)azepan-1-yl)-6-chloro-8-fluoro-2-(((S)-1-methylpyrrolidin-2-yl)-methoxy)quinazolin-7-yl)-benzo[d]thiazol-2-amine] | > 500 | > 500
Nc1nc2c(-c3c(Cl)cc4c(N5CCNCC(F)(F)C5)nc(OCCCN5CCCC5)nc4c3F)ccc(F)c2s1 [Compound 555, 4-(6-chloro-4-(6,6-difluoro-1,4-diazepan-1-yl)-8-fluoro-2-(3-(pyrrolidin-1-yl)-propoxy)quinazolin-7-yl)-7-fluorobenzo[d]thiazol-2-amine] | > 500 | < 500
Nc1nc2c(-c3c(Cl)cc4c(N5CC6CNC(C6)C5)nc(OC[C@@]56CCCN5C[C@H](F)C6)nc4c3F)ccc(F)c2s1 (stereo partly drawn) [Compound 556, 4-(4-(3,6-diazabicyclo-[3.2.1]octan-3-yl)-6-chloro-8-fluoro-2-(((2R,7aS)-2-fluorotetrahydro-1H-pyrrol-izin-7a(5H)-yl)methoxy)-quinazolin-7-yl)-7-fluoro-benzo[d]thiazol-2-amine] | > 500 | < 500
N#Cc1c(N)sc2c(F)ccc(-c3c(Cl)cc4c(N5CCCNCC5)nc(OC[C@@]56CCCN5C[C@H](F)C6)nc4c3F)c12 [Compound 557, 2-amino-4-(6-chloro-4-(1,4-diazepan-1-yl)-8-fluoro-2-(((2R,7aS)-2-fluorotetra-hydro-1H-pyrrolizin-7a(5H)-yl)methoxy)quinazolin-7-yl)-7-fluorobenzo[b]thio-phene-3-carbonitrile] | > 500 | < 500
N#Cc1ccc2ccccc2c1-c1c(Cl)cc2c(N3CC4CCC(C3)N4)nc(OC[C@@]34CCCN3C[C@H](F)C4)nc2c1F [Compound 558, 1-(4-(3,8-diazabicyclo-[3.2.1]octan-3-yl)-6-chloro-8-fluoro-2-(((2R,7aS)-2-fluorotetrahydro-1H-pyrrol-izin-7a(5H)-yl)methoxy)-quinazolin-7-yl)-2-naph-thonitrile] | > 500 | > 500
CN1CCC[C@H]1COc1nc(N2CCCC(NC3CC3)CC2)c2cc(Cl)c(-c3cccc4sc(N)nc34)c(F)c2n1 (stereo partly drawn) [Compound 559, 4-(6-chloro-4-(4-(cyclo-propylamino)azepan-1-yl)-8-fluoro-2-(((S)-1-methyl-pyrrolidin-2-yl)methoxy)-quinazolin-7-yl)benzo[d]-thiazol-2-amine] | > 500 | > 500
Fc1c(-c2cccc3ccsc23)c(Cl)cc2c(N3CC4CCC(C3)N4)nc(OC[C@@]34CCCN3C[C@H](F)C4)nc12 [Compound 560, 7-(benzo[b]thiophen-7-yl)-4-(3,8-diazabicyclo[3.2.1]-octan-3-yl)-6-chloro-8-fluoro-2-(((2R,7aS)-2-fluorotetrahydro-1H-pyrrol-izin-7a(5H)-yl)methoxy)-quinazoline] | > 500 | > 500
Cc1ccc2[nH]nc(C#N)c2c1-c1ccc2c(N3CC4CCC(C3)N4)nc(OC[C@@]34CCCN3C[C@H](F)C4)nc2c1F [Compound 561, 4-(4-(3,8-diazabicyclo-[3.2.1]octan-3-yl)-8-fluoro-2-(((2R,7aS)-2-fluorotetra-hydro-1H-pyrrolizin-7a(5H)-yl)methoxy)quinazolin-7-yl)-5-methyl-1H-indazole-3-carbonitrile] | > 500 | > 500
CN1CCC[C@H]1COc1nc(N2CCCCC(O)C2)c2cc(Cl)c(-c3cccc4sc(N)nc34)c(F)c2n1 (stereo partly drawn) [Compound 562, 1-(7-(2-aminobenzo[d]-thiazol-4-yl)-6-chloro-8-fluoro-2-(((S)-1-methyl-pyrrolidin-2-yl)methoxy)-quinazolin-4-yl)azepan-3-ol] | > 500 | < 500
Nc1c(F)ccc(-c2c(Cl)cc3c(N4CC5CCC(C4)N5)nc(OCC45CCCN4CCC5)nc3c2F)c1F [Compound 563, 3-(4-(3,8-diazabicyclo-[3.2.1]octan-3-yl)-6-chloro-8-fluoro-2-((tetrahydro-1H-pyrrolizin-7a(5H)-yl)meth-oxy)quinazolin-7-yl)-2,6-difluoroaniline] | > 500 | > 500
Nc1cc(-c2c(Cl)cc3c(N4CC5CCC(C4)N5)nc(OCC45CCCN4CCC5)nc3c2F)c2ccccc2c1 [Compound 564, 4-(4-(3,8-diazabicyclo-[3.2.1]octan-3-yl)-6-chloro-8-fluoro-2-((tetrahydro-1H-pyrrolizin-7a(5H)-yl)meth-oxy)quinazolin-7-yl)naph-thalen-2-amine] | > 500 | > 500
CN1CCC[C@H]1COc1nc(N2CC3CCC(C2)N3)c2cc(Cl)c(-c3cccc4sc(N)nc34)c(F)c2n1 [Compound 565, 4-(4-(3,8-diazabicyclo-[3.2.1]octan-3-yl)-6-chloro-8-fluoro-2-(((S)-1-methyl-pyrrolidin-2-yl)methoxy)-quinazolin-7-yl)benzo[d]-thiazol-2-amine] | > 500 | < 500
Nc1nc2c(-c3c(Cl)cc4c(N5CC6CCNCC6C5)nc(OC[C@@]56CCCN5C[C@H](F)C6)nc4c3F)ccc(F)c2s1 (stereo partly drawn) [Compound 566, 4-(6-chloro-8-fluoro-2-(((2R,7aS)-2-fluorotetra-hydro-1H-pyrrolizin-7a(5H)-yl)methoxy)-4-(octahydro-2H-pyrrolo[3,4-c]pyridin-2-yl)quinazolin-7-yl)-7-fluoro-benzo[d]thiazol-2-amine] | > 500 | < 500
Cc1ccnc(C(C)C)c1-n1c(=O)nc(N2CC3CCC(C2)N3)c2cc(F)c(-c3cc(O)cc4ccccc34)nc21 [Compound 567, 4-(3,8-diazabicyclo[3.2.1]-octan-3-yl)-6-fluoro-7-(3-hydroxynaphthalen-1-yl)-1-(2-isopropyl-4-methylpyri-din-3-yl)pyrido[2,3-d]pyrim-idin-2(1H)-one] | > 500 | > 500
Nc1nc2c(-c3c(Cl)cc4c(N5C6CCNCC5CC6)nc(OC[C@@]56CCCN5C[C@H](F)C6)nc4c3F)ccc(F)c2s1 (stereo partly drawn) [Compound 568, 4-(4-(3,9-diazabicyclo-[4.2.1]-nonan-9-yl)-6-chloro-8-fluoro-2-(((2R,7aS)-2-fluorotetrahydro-1H-pyrrol-izin-7a(5H)-yl)methoxy)-quinazolin-7-yl)-7-fluoro-benzo[d]thiazol-2-amine] | > 500 | < 500
Nc1nc2c(-c3c(Cl)cc4c(N5CC6CNCC6C5)nc(OC[C@@]56CCCN5C[C@H](F)C6)nc4c3F)ccc(F)c2s1 (stereo partly drawn) [Compound 569, 4-(6-chloro-8-fluoro-2-(((2R,7aS)-2-fluorotetra-hydro-1H-pyrrolizin-7a(5H)-yl)methoxy)-4-(hexahydro-pyrrolo[3,4-c]pyrrol-2(1H)-yl)quinazolin-7-yl)-7-fluoro-benzo[d]thiazol-2-amine] | > 500 | < 500
N#CCN1C2CCC1CN(c1nc(OC[C@@]34CCCN3C[C@H](F)C4)nc3c(F)c(-c4ccc(F)c5sc(N)c(C#N)c45)c(Cl)cc13)C2 [Compound 570, 2-amino-4-(6-chloro-4-((1R,5S)-8-(cyanomethyl)-3,8-diazabicyclo[3.2.1]-octan-3-yl)-8-fluoro-2-(((2R,7aS)-2-fluorotetra-hydro-1H-pyrrolizin-7a(5H)-yl)methoxy)quinazolin-7-yl)-7-fluorobenzo[b]thio-phene-3-carbonitrile] | > 500 | < 500
Nc1nc2c(-c3c(Cl)cc4c(N5CC6CCC(C5)N6)nc(OCC56CCCC5CCC6)nc4c3F)cccc2s1 (centres unmarked) [Compound 571, 4-(4-(3,8-diazabicyclo-[3.2.1]octan-3-yl)-6-chloro-8-fluoro-2-((hexahydro-pentalen-3a(1H)-yl)meth-oxy)quinazolin-7-yl)benzo-[d]thiazol-2-amine] | > 500 | > 500
CN1CCC[C@H]1COc1nc(N2CCCC(F)C(F)C2)c2cc(Cl)c(-c3cccc4sc(N)nc34)c(F)c2n1 (stereo partly drawn) [Compound 573, 4-(6-chloro-4-(3,4-difluoro-azepan-1-yl)-8-fluoro-2-(((S)-1-methylpyrrolidin-2-yl)methoxy)quinazolin-7-yl)-benzo[d]thiazol-2-amine] | > 500 | < 500
N#Cc1c(N)sc2c(F)ccc(-c3c(Cl)cc4c(N5CCCS(=O)(=O)CC5)nc(OC[C@@]56CCCN5C[C@H](F)C6)nc4c3F)c12 [Compound 574, 2-amino-4-(6-chloro-4-(1,1-dioxido-1,4-thiazepan-4-yl)-8-fluoro-2-(((2R,7aS)-2-fluorotetrahydro-1H-pyrrol-izin-7a(5H)-yl)methoxy)-quinazolin-7-yl)-7-fluoro-benzo[b]thiophene-3-carbonitrile] | > 500 | < 500
